The text below walks through data of patent US20260364057A1, “AMIDE COMPOUND, AND COMPOSITION AND USE THEREOF” (SIMCERE ZAIMING PHARMACEUTICAL CO., LTD., priority 2022, published 2026).

The test system of assay [1] is OVCAR3 cells. Kind of assay: Inhibition of proliferation of OVCAR-3 cells (Cell-Titer Glo). It counts as cell-based. Conditions: Homo sapiens, OVCAR-3, 72 h, 3 days, 1000 cells/well. An excerpt: Test Example 2. Test on Inhibition of Proliferation of OVCAR-3 Cells by Compounds of Present Disclosure
Cell and material: The human ovarian cancer cell line OVCAR3 was purchased from ATCC (Cat. No. HTB-161™), RPMI 1640 medium (Gibco #A1049101), penicillin-streptomycin (Gibco #15140122), and 0.25% Trypsin-EDTA (Gibco #25200056) were purchased from Gibco (U.S.), bovine insulin (Yeasen #40107ES60) was purchased from Yeasen, 384-well plates (Corning #CLS3765) was purchased from Corning (U.S.), and Cell-Titer Glo reagent (Promega #G7568) was purchased from Promega (U.S.).
Cell culture: OVCAR3 cells were cultured in RPMI 1640 complete medium (RPMI 1640 medium containing 20% fetal bovine serum, […] bovine insulin, and 1% penicillin-streptomycin) in an incubator (37 °C, 5% CO2), and the cells could be used in experiments when in the logarithmic growth phase.
Cell proliferation activity test: The Cell-Titer Glo reagent was used to test the compound for inhibition of proliferation of the OVCAR3 cell strain. The compound formulated with DMSO and pure DMSO (control) were each added to a 384-well plate using an Echo instrument; the compound was subjected to 3-fold serial dilution starting from 30 μM to obtain 11 concentration points, and the volume of the compound or DMSO added was 100 nL.
OVCAR3 cells were digested and resuspended in RPMI 1640 complete medium, and the suspension was added to a 384-well plate (1000 cells/50 μL/well) to be well mixed with the compound. The mixture was incubated in an incubator (37 °C, 5% CO2) for 3 days. The Cell-Titer Glo reagent was added at 25 µL/well, and the resulting mixture was well mixed by shaking and then incubated for 10 min. The Cell-Titer Glo readings were measured with a Multimode Plate Reader (brand: PerkinElmer; model: SIC-PV-018).
A negative control group (Bottom) was set, and the negative control group was medium wells with 0.2% DMSO added and was defined as 100% proliferation inhibition; the positive control group (Top) was OVCAR3 cell wells with 0.2% DMSO added.
The percent proliferation inhibition (% Inhibition) was calculated, and the curves were fit using the four-parameter equation, Y=Bottom+(Top−Bottom)/(1+(IC50/X)^HillSlope), to obtain the proliferation inhibition IC50 of the compound. • Percent inhibition: % Inhibition=(1−(Signal−Bottom)/(Top−Bottom))×100%. • Signal: Cell-Titer Glo reading of wells with compound added; • Bottom: Cell-Titer Glo reading of negative control wells; • Top: Cell-Titer Glo reading of positive control wells.

The target of assay [2] is T1, Human KIF18A (1-376aa) (Homo sapiens, UniProt Q8NI77).
T1 construct: Human KIF18A (1-376aa) protease used in the experiments; purchased Shanghai Panchao Biotechnology Co., Ltd
T1 sequence (Q8NI77 1-376): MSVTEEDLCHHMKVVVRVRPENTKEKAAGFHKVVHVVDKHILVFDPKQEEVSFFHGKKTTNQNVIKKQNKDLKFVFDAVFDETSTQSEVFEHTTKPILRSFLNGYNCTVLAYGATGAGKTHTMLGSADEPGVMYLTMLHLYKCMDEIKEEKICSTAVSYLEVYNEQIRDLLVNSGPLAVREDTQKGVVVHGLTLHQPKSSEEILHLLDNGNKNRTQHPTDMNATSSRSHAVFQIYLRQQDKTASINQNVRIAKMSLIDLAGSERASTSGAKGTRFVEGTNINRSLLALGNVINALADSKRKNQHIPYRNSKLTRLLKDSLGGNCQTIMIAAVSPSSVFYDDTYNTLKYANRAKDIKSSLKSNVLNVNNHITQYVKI
Nature of the assay: KIF18A enzyme activity assay (ADP-Glo). Conditions: microtubule 50 μg/mL, ATP (Km 70 μM), room temperature, 15 min, read-out: KIF18A inhibitory activity IC50. It counts as biochemical. Here is the method: Test Example 1: KIF18A Enzyme Activity Assay
Based on the ADP-Glo™ Kinase Assay, the ADP amount generated in the reaction was detected to reflect the enzyme activity of KIF18A.
Human KIF18A (1-376aa) […] used in the experiments, expressed by Shanghai Panchao Biotechnology Co., Ltd., was stored at −80 °C (no more than 5 freeze-thaw cycles).
The assay kit (ADP-Glo™ Kinase Assay) was purchased from Promega (Cat. No. V9101) and stored at −30 °C. The kit detects the enzyme activity by measuring ADP generated in enzyme reaction. The KIF18A enzyme and ATP generate ADP. The remaining ATP in this reaction is consumed by the ADP-Glo reagent, while the ADP generated by the KIF18A enzyme reaction is converted back to ATP by the assay reagent. The ATP then reacts with luciferin in the presence of Ultra-Glo™ luciferase, producing luminescence. The luminescent signal is positively correlated with the activity of the KIF18A enzyme.
Compounds were each subjected to 3-fold serial dilution starting from 10 μM to obtain 10 concentration points. The compounds and pure DMSO (control) were pipetted into wells of a 384-well plate using an Echo instrument, and the total volume of compound and DMSO was 100 nL; sample concentrations of gradient dilution were obtained by the instrument based on different ratios. Preparation of a KIF18A enzyme reaction buffer: […], 10 mM MgCl2, 0.01% Pluronic F-68, 1 μM Taxol, and 50 μg/mL Microtubule. KIF18A and the enzyme reaction buffer were mixed, and then the mixed solution was added to the 384-well plate and incubated at room temperature for 15 min. ATP (Km 70 μM) was then added to the mixed solution, and the mixed solution was incubated at room temperature for 15 min. 10 μL of ADP-Glo™ Reagent was well mixed with 10 μL of the mixed solution, and the mixture was incubated at room temperature for 40 min. Finally, 20 μL of ADP-Glo™ Detection Reagent was added, and the mixture was incubated at room temperature for 30 min. The chemiluminescent signal in each well was measured using an Envision plate reader (PerkinElmer, emission wavelength: 400-700 nm). In the experiment, 1 column of wells with no compound and no enzyme (chemiluminescence value was taken as [RLU]background) and 1 column of wells with enzyme but no compound (chemiluminescence value was taken as [RLU]enzyme) were provided. The chemiluminescence value of the compound adding group was taken as [RLU]cpd. The inhibition rate of the compound on […] was calculated according to the following equation: inhibition rate (%)=([RLU]enzyme−[RLU]cpd)/([RLU]enzyme−[RLU]background)×100%, and the inhibitory activity IC50 value of the compound on the enzyme activity was calculated using a four-parameter Logistic Model method. In the following equation, x represents the logarithmic form of the concentration of compound, and f (x) represents an effect value (inhibition rate of enzyme activity at the concentration): F(x)=(A+((B−A)/(1+((C/x)^D)))). A. B, C, and D are four parameters.

Each structure is given as a SMILES string.

Regarding `CC1(C)Cc2cc(NC(=O)c3ccc(NS(=O)(=O)CCO)cc3N3CCC4(CC3)CC4)cc(N3CCC(F)(F)CC3)c2O1` [Compound 82], the concentration for half-maximal inhibition (IC50) (commonly the concentration needed to halve the response being measured) is 99.3 nM in assay [1] and less than 200 nM in assay [2].

`CCNC(=O)c1ccc(NC(=O)c2ccc(NS(=O)(=O)CCO)cc2N2CCC3(CC2)CC3)c2nc3n(c12)CCCCC3` [Compound 113]: the figures for the IC50 in assay [1] and in assay [2] were 5.32 nM and less than 200 nM, respectively.

`O=C(Nc1cccc2c1nc1n2CCC2CC12)c1ccc(NS(=O)(=O)CCO)cc1N1CCC2(CC1)CC2` (centres unmarked) [Compound 71]: the IC50 in assay [1] is 94.2 nM; in assay [2], less than 200 nM.

Take `O=C(Nc1cccc2c3c(nn12)C1CC1C3)c1ccc(NS(=O)(=O)CCO)cc1N1CCC2(CC1)CC2` (centres unmarked) [Compound 107]: the half-maximal inhibitory concentration (IC50) in assay [1] is 99.3 nM; in assay [2] it was less than 200 nM.

For the compound `N#Cc1ccc(NC(=O)c2ccc(NS(=O)(=O)CCO)cc2N2CCC3(CC2)CC3)c2nc3n(c12)CCCC3` [Compound 50], the IC50 is 48.9 nM in assay [1] and less than 200 nM in assay [2].

As to `O=C(Nc1cc(N2CCC(F)(F)CC2)c2occc2c1)c1ccc(NS(=O)(=O)CCO)cc1N1CCC2(CC1)CC2` [Compound 45], the results for the IC50 in assay [1] and in assay [2] were 6.65 nM and less than 200 nM, respectively.

For the compound `CC1(C)Cn2c(nc3c(NC(=O)c4ccc(NS(=O)(=O)CCO)cc4N4CCC5(CC4)CC5)cccc32)CO1` [Compound 87], the IC50 was 31 nM in assay [1] and less than 200 nM in assay [2].

On to `O=C(Nc1cccn2c3c(nc12)CCCCC3)c1ccc(NS(=O)(=O)CCO)cc1N1CCC2(CC1)CC2` [Compound 29], for which the IC50 in assay [1] is 69.8 nM; in assay [2], less than 200 nM.

Regarding `O=C(Nc1cccc2c1nc1n2CC2CC12)c1ccc(NS(=O)(=O)CCO)cc1N1CCC2(CC1)CC2` (centres unmarked) [Compound 48], the IC50 is 20.4 nM in assay [1] and less than 200 nM in assay [2].

In the case of `O=C(Nc1cc2c(c(N3CCC(F)(F)CC3)c1)OCCC2)c1ccc(NS(=O)(=O)CCO)cc1N1CCC2(CC1)CC2` [Compound 60], the IC50 in assay [1] is 11 nM; in assay [2], less than 200 nM.

Consider `CC1Cn2c(nc3c(NC(=O)c4ccc(NS(=O)(=O)CCO)cc4N4CCC5(CC4)CC5)cccc32)CO1` (centres unmarked) [Compound 55], for which the half-inhibitory concentration (IC50) in assay [1] was 17.5 nM; in assay [2] it was less than 200 nM.

`O=C(Nc1cccc2c1nc1n2C2CCC1CC2)c1ccc(NS(=O)(=O)CCO)cc1N1CCC2(CC1)CC2` [Compound 47]: the IC50 is 56.2 nM in assay [1] and less than 200 nM in assay [2].

`O=C(Nc1cc2c(c(N3CCOCC3)c1)OCC2)c1ccc(NS(=O)(=O)CCO)cc1N1CCC2(CC1)CC2` [Compound 51]: the IC50 in assay [1] was 68.1 nM; in assay [2] it was less than 200 nM.

Consider `O=C(Nc1cccc2c1nc1n2CCOC1)c1ccc(NS(=O)(=O)CCO)cc1N1CCC2(CC1)CC2` [Compound 34], for which the results for the half-maximal inhibitory concentration (IC50) in assay [1] and in assay [2] were 22.8 nM and less than 200 nM, respectively.

As for `N#Cc1ccc(NC(=O)c2ccc(NS(=O)(=O)CCO)cc2N2CCC3(CC2)CC3)c2nc3n(c12)CC1C3C1(F)F` (centres unmarked) [Compound 110], the concentration for half-maximal inhibition (IC50) was 11.2 nM in assay [1] and less than 200 nM in assay [2].

On to `O=C(Nc1cc2c(c(N3CCC(F)(F)CC3)c1)CCC2)c1ccc(NS(=O)(=O)CCO)cc1N1CCC2(CC1)CC2` [Compound 41], for which the figures for the half-inhibitory concentration (IC50) in assay [1] and in assay [2] were 16.8 nM and less than 200 nM, respectively.

In the case of `O=C(Nc1cccc2c1nc1n2CCCCC1)c1ccc(NS(=O)(=O)CCO)cc1N1CCC2(CC1)CC2` [Compound 24], the IC50 in assay [1] was 52 nM; in assay [2], less than 200 nM.

For `O=C(Nc1cccc2c1nc1n2CCCC1)c1ccc(NS(=O)(=O)CCO)cc1N1CCC2(CC1)CC2` [Compound 12], the IC50 in assay [1] is 95.9 nM; in assay [2], less than 200 nM.

Consider `O=C(Nc1cccc2c1nc1n2C2COC1C2)c1ccc(NS(=O)(=O)CCO)cc1N1CCC2(CC1)CC2` (centres unmarked) [Compound 83], for which the results for the IC50 in assay [1] and in assay [2] were 86 nM and less than 500 nM, respectively.

As for `O=C(Nc1cccc2c1nc1n2CC2CCC1C2(F)F)c1ccc(NS(=O)(=O)CCO)cc1N1CCC2(CC1)CC2` (centres unmarked) [Compound 74], the concentration for half-maximal inhibition (IC50) was 24 nM in assay [1] and less than 200 nM in assay [2].

Consider `O=C(Nc1cccc2c3n(nc12)CCCCC3)c1ccc(NS(=O)(=O)CCO)cc1N1CCC2(CC1)CC2` [Compound 78], for which the half-inhibitory concentration (IC50) in assay [1] was 45.3 nM; in assay [2], less than 200 nM.

For the compound `O=C(Nc1cccc2c1nc1n2CC2CC2C1)c1ccc(NS(=O)(=O)CCO)cc1N1CCC2(CC1)CC2` (centres unmarked) [Compound 70], the 50% inhibitory concentration (IC50) in assay [1] is 93.3 nM; in assay [2], less than 200 nM.

For `CC1CCCCc2nc3c(NC(=O)c4ccc(NS(=O)(=O)CCO)cc4N4CCC5(CC4)CC5)cccc3n21` (centres unmarked) [Compound 68], the IC50 was 41.6 nM in assay [1] and less than 200 nM in assay [2].

On to `O=C(Nc1cccc2c1nc1n2CC2CCC1O2)c1ccc(NS(=O)(=O)CCO)cc1N1CCC2(CC1)CC2` (centres unmarked) [Compound 40], for which the IC50 in assay [1] is 36.6 nM; in assay [2] it was less than 200 nM.

Turning to `O=C(Nc1cccc2c1nc1n2CC2CC1C2(F)F)c1ccc(NS(=O)(=O)CCO)cc1N1CCC2(CC1)CC2` (centres unmarked) [Compound 88], the results for the IC50 in assay [1] and in assay [2] were 98 nM and less than 200 nM, respectively.

In the case of `O=C(Nc1cc2c(c3c1nc1n3CCCC1)OCC2)c1ccc(NS(=O)(=O)CCO)cc1N1CCC2(CC1)CC2` [Compound 42], the concentration for half-maximal inhibition (IC50) in assay [1] was 26.5 nM; in assay [2] it was less than 200 nM.

With `O=C(Nc1cccc2c1nc1n2CC(C(F)(F)F)C1)c1ccc(NS(=O)(=O)CCO)cc1N1CCC2(CC1)CC2` (centres unmarked) [Compound 76], the IC50 was 43.1 nM in assay [1] and less than 200 nM in assay [2].

As for `O=C(Nc1cc2c(c(N3CCC(F)(F)CC3)c1)CC2)c1ccc(NS(=O)(=O)CCO)cc1N1CCC2(CC1)CC2` [Compound 103], the IC50 in assay [1] was 14.7 nM; in assay [2] it was less than 200 nM.
